The values below come from patent US9504666B2, “Chloroprocaine-based pharmaceutical composition for repeated intrathecal administration” (SINTETICA S.A., priority 2012, dated 2016).

For data set [1] the following is noted: cited from earlier work.
In data set [2] the test system is rats. The data set is described as follows: Behaviour observation in the pre-clinical neurotoxicity trial with repeated intrathecal doses. Conditions: for changes in behavior: 7 consecutive days.
Description: (§1) A pre-clinical trial was carried out to assess the neurotoxicity of 2-chloroprocaine by intrathecal administration in repeated doses using a saline solution as control.
(§2) A first group of six rats was repeatedly treated with 20 μl of an injectable saline solution by intrathecal administration once a day.
The test system of data set [3] is rats. Particulars: rat, in vivo.
Description: as §1, §2
Data set [4] concerns rats. The experiment in a line: Tail flick latency after repeated intrathecal doses. Conditions: for tail flick latency before injecting: before the daily 20 μl intrathecal injection. (Thermal pain tests record how soon the animal reacts.)
Description: The data are presented as ±SEM average of 6 rats;
as §1, §2
The conditions of data set [5]: in particular in form of hydrochloride; cited from earlier work.
A further data set deals with rat. Particulars: in vivo rat models, intrathecal, equipotent concentrations, versus lidocaine; cited from earlier work.
The subject of data set [6] is rats. Conditions: rat, in vivo. The source holds these as a separate data set.
Description: as §1, §2
Data set [7] deals with rats. The data set is described as follows: Motor function score after repeated intrathecal doses. Conditions: 20 μl of 0.5% solution intrathecally once a day, 7 consecutive days.
Description: as §1, §2
Data set [8] in a line: Body weight variation after repeated intrathecal doses. Particulars: rats, 20 μl of 0.5% solution intrathecally once a day, 7 consecutive days.
Description: as §1, §2
Data set [9] concerns conus medullaris (cauda equina). The experiment in a line: Histological nerve injury score of 10 mm caudal portion of conus medullaris (cauda equina). Particulars: 0.5% solution.
For data set [10] the following is noted: cited from earlier work. The source holds these as a separate data set.
Setting [11] is: rats, 20 μl of 0.5% solution intrathecally once a day.
Setting [12] is: 20 μl of 0.5% solution intrathecally, chloroprocaine not significant, bupivacaine P<0.001.

Like-named read-outs stand apart in the source and are kept apart here.

`CCN(CC)CCOC(=O)c1ccc(N)cc1Cl` [2-chloroprocaine, 2-(diethylaminoethyl) 4-amino-2-chlorobenzoate]: in data set [1] (offset by plasma pseudo cholinesterase), the half-life entry is reported as “lower than one”. In addition, in data set [1] (plasma), the plasma half-life was 45 to 60 s. The changes in behavior entry is on record as “No appreciable changes in behavior” in the data set with rats [2] (setting [11]); “No appreciable changes in behavior” with rats [2] (rats, 20 μl of 1% solution intrathecally once a day); “No appreciable changes in behavior” in the data set on rats [2] (rats, 20 μl of 2% solution intrathecally once a day). In the data set on rats [2] (rats, repeated intrathecal, 2-chloroprocaine 2%, bupivacaine 0.5%), the “tolerability compared with other administered concentrations” value is on record as “less tolerated”. Moreover, in the data set with rats [2] (repeated intrathecal administration), the “neurotoxicity of repeated intrathecal administration” value is given as “does not determine detectable neurotoxicity”. Besides, in the data set on rats [3], the “motor functions (score)” value is “remained unchanged”. The “tail flick latency before injecting” value in the data set with rats [4] (0.5% solution), with rats [4] (1% solution) and in the data set on rats [4] (2% solution) was “comparable with the values of rats treated with vehicle” in each case. For the same compound, the “tail flick latency 20 minutes after injection” value in the data set with rats [4] (setting [12]) is listed as “slight increase”; with rats [4] (20 μl of 1% solution intrathecally, P<0.05) it was “significant increase”; in the data set on rats [4] (20 μl of 2% solution intrathecally, P<0.001), “significant increase”. For the same compound, the lasting of effect in data set [5] is 30 to 60 min. Moreover, the onset in [5] was 5 to 15 min.
Consider `CCCCN1CCCCC1C(=O)Nc1c(C)cccc1C` (stereo not drawn) [bupivacaine], for which, in the data set on rat, the “morphological damage and functional worsening” value was “less severe morphological damage and functional worsening than lidocaine”. For the same compound, the changes in behavior entry in the data set on rats [2] (setting [11]) is “modest sleepiness in one rat on the fifth day and in two rats on the sixth and seventh days”. Besides, the “tail flick latency before injecting” value with rats [4] (0.5% solution) is recorded as “comparable with the values of rats treated with vehicle”. Further, in the data set on rats [4] (setting [12]), the “tail flick latency 20 minutes after injection” value was “significant increase”. Further, the “tolerability compared with other administered concentrations” value in the data set on rats [6] was “less tolerated”. Moreover, the “motor functions (score)” value in the data set with rats [7] was “two rats on the sixth day and three rats on the seventh day showed bilateral limbic weakness which influenced perambulation (score 2)”. Moreover, in data set [8], the body weight entry is “decreased”. Further, the “moderately inflammatory infiltrate in some fibers, number of rats” value in data set [9] (group of 6 rats, 7 days repeated intrathecal) was “one”. In addition, the “histological score (nerve injury score 0 to 3)” value in data set [9] (rats, 20 μl intrathecally once a day for 7 days, ±SEM of 6 rats, vehicle 0.809±0.067) is 0.979±0.110.
Turning to `CCN(CC)CC(=O)Nc1c(C)cccc1C` [lidocaine], the “transient neurologic syndrome (TNS)” value in [10] (use in spinal anesthesiological practice, Pollock 2002) was “associated to the onset of transient neurologic syndrome (TNS)”.
As for `CCN(CC)CCOC(=O)c1ccc(N)cc1` [procaine], in data set [10] (spinal anesthesia, Hodgson et al. 2000), the “percentage of cases refractory to local anesthesia” value was 17%.
